# Measured values as given in the kinase profiling compilation of Christmann-Franck et al. (2016).
# Legend:
# Test in all cases: radiometric filter-binding kinase assay
# PRKAA1 or PRKAA2 (rat) = details: accession and sequence are those of the human protein
# TLK1 (human) = TLK1 (human) (UniProt Q9UKI8)
# [1] = system: OXSR1 (human), O95747 [T185E]
# PRKCG (human) = PRKCG (human) (UniProt P05129)
# MAPKAPK3 (human) = MAPKAPK3 (human) (UniProt Q16644)
# TEK (human) = TEK (human) (UniProt Q02763)
# TSSK1B (human) = TSSK1B (human) (UniProt Q9BXA7)
# TTBK1 (human) = TTBK1 (human) (UniProt Q5TCY1)
# EIF2AK3 (human) = EIF2AK3 (human) (UniProt Q9NZJ5)
# Sequence of EIF2AK3 (human) (Q9NZJ5 whole entry, looked up): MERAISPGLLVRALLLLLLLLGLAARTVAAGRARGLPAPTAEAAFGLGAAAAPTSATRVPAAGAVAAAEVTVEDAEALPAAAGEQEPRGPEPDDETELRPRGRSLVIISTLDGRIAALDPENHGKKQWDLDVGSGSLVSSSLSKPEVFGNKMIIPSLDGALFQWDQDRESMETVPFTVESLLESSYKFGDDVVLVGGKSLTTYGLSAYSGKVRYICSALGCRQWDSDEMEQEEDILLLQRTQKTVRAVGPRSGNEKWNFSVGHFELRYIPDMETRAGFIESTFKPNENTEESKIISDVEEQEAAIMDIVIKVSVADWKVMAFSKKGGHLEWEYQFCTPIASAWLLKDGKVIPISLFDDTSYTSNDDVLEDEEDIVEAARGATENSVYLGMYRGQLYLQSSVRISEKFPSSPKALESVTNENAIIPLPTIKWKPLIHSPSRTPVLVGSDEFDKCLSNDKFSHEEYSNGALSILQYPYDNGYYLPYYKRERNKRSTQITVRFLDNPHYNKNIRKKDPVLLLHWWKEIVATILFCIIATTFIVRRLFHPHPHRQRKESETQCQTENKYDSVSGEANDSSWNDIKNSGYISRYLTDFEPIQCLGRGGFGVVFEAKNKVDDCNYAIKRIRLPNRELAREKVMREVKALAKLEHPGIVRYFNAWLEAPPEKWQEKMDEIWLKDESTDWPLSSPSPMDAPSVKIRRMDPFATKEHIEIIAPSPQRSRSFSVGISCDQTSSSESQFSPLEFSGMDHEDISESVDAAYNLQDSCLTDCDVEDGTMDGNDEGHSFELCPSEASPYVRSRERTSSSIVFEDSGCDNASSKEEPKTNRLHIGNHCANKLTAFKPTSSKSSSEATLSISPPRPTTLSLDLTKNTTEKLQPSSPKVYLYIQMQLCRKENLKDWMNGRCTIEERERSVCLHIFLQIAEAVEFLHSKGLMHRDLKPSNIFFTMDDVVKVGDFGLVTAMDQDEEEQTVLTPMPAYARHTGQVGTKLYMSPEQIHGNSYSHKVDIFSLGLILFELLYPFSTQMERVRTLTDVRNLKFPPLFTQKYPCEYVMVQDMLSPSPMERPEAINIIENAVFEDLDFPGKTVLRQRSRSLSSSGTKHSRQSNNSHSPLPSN
# PTK6 (human) = PTK6 (human) (UniProt Q13882)
# Sequence of PTK6 (human) (Q13882 whole entry, looked up): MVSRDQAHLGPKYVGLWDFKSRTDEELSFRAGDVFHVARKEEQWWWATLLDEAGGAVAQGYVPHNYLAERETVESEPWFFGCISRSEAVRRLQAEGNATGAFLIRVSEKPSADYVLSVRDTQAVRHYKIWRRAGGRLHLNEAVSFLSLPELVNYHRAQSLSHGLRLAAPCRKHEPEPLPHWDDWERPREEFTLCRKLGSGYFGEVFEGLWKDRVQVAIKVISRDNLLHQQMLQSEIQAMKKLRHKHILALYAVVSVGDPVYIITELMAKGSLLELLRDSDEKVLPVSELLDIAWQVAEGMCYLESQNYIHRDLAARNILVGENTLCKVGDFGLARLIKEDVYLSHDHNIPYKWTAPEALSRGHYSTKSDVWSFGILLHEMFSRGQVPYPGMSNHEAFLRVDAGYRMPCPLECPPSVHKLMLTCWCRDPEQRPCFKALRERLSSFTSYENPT
# ABL1 (human) = ABL1 (human) (UniProt P00519)
# STK33 (human) = STK33 (human) (UniProt Q9BYT3)
# Sequence of STK33 (human) (Q9BYT3 whole entry, looked up): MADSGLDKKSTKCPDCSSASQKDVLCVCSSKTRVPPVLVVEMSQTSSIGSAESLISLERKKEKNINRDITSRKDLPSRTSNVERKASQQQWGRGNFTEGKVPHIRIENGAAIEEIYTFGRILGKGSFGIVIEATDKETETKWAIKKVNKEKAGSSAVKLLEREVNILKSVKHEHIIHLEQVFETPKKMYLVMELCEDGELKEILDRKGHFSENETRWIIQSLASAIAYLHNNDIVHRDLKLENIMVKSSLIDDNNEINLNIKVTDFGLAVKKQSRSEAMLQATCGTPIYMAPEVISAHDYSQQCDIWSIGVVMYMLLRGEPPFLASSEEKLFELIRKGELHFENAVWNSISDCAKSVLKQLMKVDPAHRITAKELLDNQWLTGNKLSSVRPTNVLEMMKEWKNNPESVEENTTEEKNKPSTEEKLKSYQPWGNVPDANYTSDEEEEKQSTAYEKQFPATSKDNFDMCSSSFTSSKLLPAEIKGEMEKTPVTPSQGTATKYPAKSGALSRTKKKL
# IRAK1 (human) = IRAK1 (human) (UniProt P51617)
# Sequence of IRAK1 (human) (P51617 whole entry, looked up): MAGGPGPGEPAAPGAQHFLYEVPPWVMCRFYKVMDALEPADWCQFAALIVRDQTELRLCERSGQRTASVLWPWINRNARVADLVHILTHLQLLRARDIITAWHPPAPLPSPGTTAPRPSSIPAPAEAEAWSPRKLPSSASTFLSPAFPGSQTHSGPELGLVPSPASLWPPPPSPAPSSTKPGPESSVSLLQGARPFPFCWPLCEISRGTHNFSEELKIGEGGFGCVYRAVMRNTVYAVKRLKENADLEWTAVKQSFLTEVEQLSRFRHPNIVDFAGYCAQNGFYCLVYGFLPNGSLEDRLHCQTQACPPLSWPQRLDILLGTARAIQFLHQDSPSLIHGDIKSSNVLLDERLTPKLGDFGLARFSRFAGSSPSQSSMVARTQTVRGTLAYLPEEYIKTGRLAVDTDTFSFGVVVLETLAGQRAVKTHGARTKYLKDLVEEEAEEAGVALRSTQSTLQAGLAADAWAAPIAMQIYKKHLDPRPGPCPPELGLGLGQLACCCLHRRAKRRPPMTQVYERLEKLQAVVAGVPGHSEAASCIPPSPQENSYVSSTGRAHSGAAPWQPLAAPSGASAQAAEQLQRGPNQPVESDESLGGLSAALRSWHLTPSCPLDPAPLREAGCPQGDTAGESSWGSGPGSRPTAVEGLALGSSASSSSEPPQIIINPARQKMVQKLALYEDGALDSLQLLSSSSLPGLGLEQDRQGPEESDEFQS
# STK16 (human) = STK16 (human) (UniProt O75716)
# ZAP70 (human) = ZAP70 (human) (UniProt P43403)
# Sequence of ZAP70 (human) (P43403 whole entry, looked up): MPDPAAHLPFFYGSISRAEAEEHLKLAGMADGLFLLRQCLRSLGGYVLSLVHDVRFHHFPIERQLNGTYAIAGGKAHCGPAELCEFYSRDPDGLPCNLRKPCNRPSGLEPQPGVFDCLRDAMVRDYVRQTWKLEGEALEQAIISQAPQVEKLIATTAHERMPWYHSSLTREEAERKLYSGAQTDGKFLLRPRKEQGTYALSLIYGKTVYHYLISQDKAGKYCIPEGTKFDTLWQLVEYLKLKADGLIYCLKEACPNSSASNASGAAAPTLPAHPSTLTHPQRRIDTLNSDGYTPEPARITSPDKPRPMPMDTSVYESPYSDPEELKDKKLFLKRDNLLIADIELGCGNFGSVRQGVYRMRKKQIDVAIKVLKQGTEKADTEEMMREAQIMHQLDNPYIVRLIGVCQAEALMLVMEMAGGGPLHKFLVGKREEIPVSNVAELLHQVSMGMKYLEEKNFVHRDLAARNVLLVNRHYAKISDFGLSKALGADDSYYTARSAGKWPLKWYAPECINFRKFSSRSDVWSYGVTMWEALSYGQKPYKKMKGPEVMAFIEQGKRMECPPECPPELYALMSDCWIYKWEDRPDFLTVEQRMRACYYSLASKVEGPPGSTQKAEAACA
# TESK1 (human) = TESK1 (human) (UniProt Q15569)
# Sequence of TLK1 (human) (Q9UKI8 whole entry, looked up): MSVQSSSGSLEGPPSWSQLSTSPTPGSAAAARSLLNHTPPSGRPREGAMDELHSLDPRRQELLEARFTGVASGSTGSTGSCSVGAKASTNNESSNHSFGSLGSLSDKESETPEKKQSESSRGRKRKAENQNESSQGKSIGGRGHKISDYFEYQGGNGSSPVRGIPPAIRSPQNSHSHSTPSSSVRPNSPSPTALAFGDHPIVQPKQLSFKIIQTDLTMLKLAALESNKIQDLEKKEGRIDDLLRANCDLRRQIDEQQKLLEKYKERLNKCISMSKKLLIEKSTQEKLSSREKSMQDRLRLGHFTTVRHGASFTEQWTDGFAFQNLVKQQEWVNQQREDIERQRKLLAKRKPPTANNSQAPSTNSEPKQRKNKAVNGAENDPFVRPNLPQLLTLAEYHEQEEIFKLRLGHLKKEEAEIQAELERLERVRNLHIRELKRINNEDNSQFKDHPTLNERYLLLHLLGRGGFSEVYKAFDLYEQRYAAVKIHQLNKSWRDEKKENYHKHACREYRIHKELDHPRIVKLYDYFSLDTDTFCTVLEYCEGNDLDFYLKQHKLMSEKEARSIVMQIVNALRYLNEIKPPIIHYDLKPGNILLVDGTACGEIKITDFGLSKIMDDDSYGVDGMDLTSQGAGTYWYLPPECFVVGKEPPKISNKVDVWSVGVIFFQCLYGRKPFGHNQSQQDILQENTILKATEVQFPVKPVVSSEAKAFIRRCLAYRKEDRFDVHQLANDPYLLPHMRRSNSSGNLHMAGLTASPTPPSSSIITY
compound,measurement,setting,value
NC(=O)c1cc(-c2ccnc(NC3CCCCC3)c2)nc(N2CCNCC2)c1,residual activity,PRKAA1 or PRKAA2 (rat); compound 0.1 µM,97%
same,residual activity,PRKAA1 or PRKAA2 (rat); compound 1.0 µM,61%
same,residual activity,PRKAA1 or PRKAA2 (rat); compound 10.0 µM,20%
same,residual activity,TLK1 (human); compound 0.1 µM,91%
same,residual activity,TLK1 (human); compound 1.0 µM,107%
same,residual activity,TLK1 (human); compound 10.0 µM,90%
same,residual activity,[1]; compound 0.1 µM,98%
same,residual activity,[1]; compound 1.0 µM,104%
same,residual activity,[1]; compound 10.0 µM,73%
same,residual activity,PRKCG (human); compound 0.1 µM,106%
same,residual activity,PRKCG (human); compound 1.0 µM,103%
same,residual activity,PRKCG (human); compound 10.0 µM,115%
same,residual activity,MAPKAPK3 (human); compound 0.1 µM,92%
same,residual activity,MAPKAPK3 (human); compound 1.0 µM,100%
same,residual activity,MAPKAPK3 (human); compound 10.0 µM,92%
same,residual activity,TEK (human); compound 0.1 µM,101%
same,residual activity,TEK (human); compound 1.0 µM,111%
same,residual activity,TEK (human); compound 10.0 µM,84%
same,residual activity,TSSK1B (human); compound 0.1 µM,84%
same,residual activity,TSSK1B (human); compound 1.0 µM,56%
same,residual activity,TSSK1B (human); compound 10.0 µM,12%
same,residual activity,TTBK1 (human); compound 0.1 µM,93%
same,residual activity,TTBK1 (human); compound 10.0 µM,93%
same,residual activity,EIF2AK3 (human); compound 0.1 µM,108%
same,residual activity,EIF2AK3 (human); compound 1.0 µM,101%
same,residual activity,EIF2AK3 (human); compound 10.0 µM,97%
same,residual activity,PTK6 (human); compound 0.1 µM,114%
same,residual activity,PTK6 (human); compound 1.0 µM,124%
same,residual activity,PTK6 (human); compound 10.0 µM,103%
same,residual activity,ABL1 (human); compound 0.1 µM,102%
same,residual activity,ABL1 (human); compound 1.0 µM,112%
same,residual activity,ABL1 (human); compound 10.0 µM,100%
same,residual activity,STK33 (human); compound 0.1 µM,103%
same,residual activity,STK33 (human); compound 10.0 µM,66%
same,residual activity,IRAK1 (human); compound 0.1 µM,92%
same,residual activity,IRAK1 (human); compound 10.0 µM,87%
same,residual activity,STK16 (human); compound 0.1 µM,100%
same,residual activity,STK16 (human); compound 1.0 µM,93%
same,residual activity,STK16 (human); compound 10.0 µM,84%
same,residual activity,ZAP70 (human); compound 0.1 µM,108%
same,residual activity,ZAP70 (human); compound 1.0 µM,114%
same,residual activity,ZAP70 (human); compound 10.0 µM,109%
same,residual activity,TESK1 (human); compound 0.1 µM,99%
same,residual activity,TESK1 (human); compound 1.0 µM,102%
same,residual activity,TESK1 (human); compound 10.0 µM,93%
Cc1ccc(=O)n(-c2ccccc2)c1,residual activity,PRKAA1 or PRKAA2 (rat); compound 1.0 µM,99%
same,residual activity,PRKAA1 or PRKAA2 (rat); compound 10.0 µM,103%
same,residual activity,TLK1 (human); compound 1.0 µM,113%
same,residual activity,TLK1 (human); compound 10.0 µM,115%
same,residual activity,[1]; compound 10.0 µM,115%
same,residual activity,PRKCG (human); compound 1.0 µM,99%
same,residual activity,PRKCG (human); compound 10.0 µM,94%
same,residual activity,MAPKAPK3 (human); compound 1.0 µM,92%
same,residual activity,MAPKAPK3 (human); compound 10.0 µM,84%
same,residual activity,TEK (human); compound 1.0 µM,110%
same,residual activity,TEK (human); compound 10.0 µM,118%
same,residual activity,TSSK1B (human); compound 1.0 µM,87%
same,residual activity,TSSK1B (human); compound 10.0 µM,91%
same,residual activity,TTBK1 (human); compound 1.0 µM,124%
same,residual activity,TTBK1 (human); compound 10.0 µM,107%
same,residual activity,EIF2AK3 (human); compound 1.0 µM,106%
same,residual activity,EIF2AK3 (human); compound 10.0 µM,105%
same,residual activity,PTK6 (human); compound 1.0 µM,101%
same,residual activity,PTK6 (human); compound 10.0 µM,92%
same,residual activity,ABL1 (human); compound 1.0 µM,106%
same,residual activity,ABL1 (human); compound 10.0 µM,112%
same,residual activity,STK33 (human); compound 1.0 µM,82%
same,residual activity,STK33 (human); compound 10.0 µM,90%
same,residual activity,IRAK1 (human); compound 1.0 µM,105%
same,residual activity,STK16 (human); compound 1.0 µM,87%
same,residual activity,STK16 (human); compound 10.0 µM,96%
same,residual activity,ZAP70 (human); compound 1.0 µM,110%
same,residual activity,TESK1 (human); compound 1.0 µM,94%
same,residual activity,TESK1 (human); compound 10.0 µM,82%
O=C(N[C@@H](COc1ccc2[nH]c(=O)[nH]c2c1)c1ccccc1)c1cccn(Cc2ccc(F)c(F)c2)c1=O,residual activity,PRKAA1 or PRKAA2 (rat); compound 0.1 µM,97%
same,residual activity,PRKAA1 or PRKAA2 (rat); compound 1.0 µM,99%
same,residual activity,PRKAA1 or PRKAA2 (rat); compound 10.0 µM,99%
same,residual activity,TLK1 (human); compound 0.1 µM,97%
same,residual activity,TLK1 (human); compound 1.0 µM,103%
same,residual activity,TLK1 (human); compound 10.0 µM,99%
same,residual activity,[1]; compound 0.1 µM,97%
same,residual activity,[1]; compound 1.0 µM,96%
same,residual activity,[1]; compound 10.0 µM,83%
same,residual activity,PRKCG (human); compound 0.1 µM,91%
same,residual activity,PRKCG (human); compound 1.0 µM,103%
same,residual activity,MAPKAPK3 (human); compound 0.1 µM,116%
same,residual activity,MAPKAPK3 (human); compound 1.0 µM,109%
same,residual activity,MAPKAPK3 (human); compound 10.0 µM,74%
same,residual activity,TEK (human); compound 0.1 µM,104%
same,residual activity,TEK (human); compound 1.0 µM,100%
same,residual activity,TEK (human); compound 10.0 µM,96%
same,residual activity,TSSK1B (human); compound 0.1 µM,93%
same,residual activity,TSSK1B (human); compound 1.0 µM,103%
same,residual activity,TSSK1B (human); compound 10.0 µM,86%
same,residual activity,TTBK1 (human); compound 0.1 µM,101%
same,residual activity,TTBK1 (human); compound 1.0 µM,110%
same,residual activity,TTBK1 (human); compound 10.0 µM,106%
same,residual activity,EIF2AK3 (human); compound 0.1 µM,107%
same,residual activity,EIF2AK3 (human); compound 1.0 µM,104%
same,residual activity,EIF2AK3 (human); compound 10.0 µM,96%
same,residual activity,PTK6 (human); compound 0.1 µM,120%
same,residual activity,PTK6 (human); compound 1.0 µM,129%
same,residual activity,PTK6 (human); compound 10.0 µM,119%
same,residual activity,ABL1 (human); compound 0.1 µM,106%
same,residual activity,ABL1 (human); compound 1.0 µM,105%
same,residual activity,ABL1 (human); compound 10.0 µM,98%
same,residual activity,STK33 (human); compound 0.1 µM,92%
same,residual activity,STK33 (human); compound 1.0 µM,107%
same,residual activity,STK33 (human); compound 10.0 µM,79%
same,residual activity,IRAK1 (human); compound 0.1 µM,117%
same,residual activity,IRAK1 (human); compound 1.0 µM,118%
same,residual activity,IRAK1 (human); compound 10.0 µM,108%
same,residual activity,STK16 (human); compound 0.1 µM,101%
same,residual activity,STK16 (human); compound 1.0 µM,118%
same,residual activity,STK16 (human); compound 10.0 µM,106%
same,residual activity,ZAP70 (human); compound 0.1 µM,102%
same,residual activity,ZAP70 (human); compound 1.0 µM,106%
same,residual activity,TESK1 (human); compound 0.1 µM,98%
same,residual activity,TESK1 (human); compound 1.0 µM,88%
same,residual activity,TESK1 (human); compound 10.0 µM,107%
CC(C)(C#N)c1ccc(N2C(=O)OCc3cnc4ccc(-c5cnc6ccccc6c5)cc4c32)cc1,residual activity,PRKAA1 or PRKAA2 (rat); compound 1.0 µM,91%
same,residual activity,PRKAA1 or PRKAA2 (rat); compound 10.0 µM,89%
same,residual activity,TLK1 (human); compound 1.0 µM,84%
same,residual activity,TLK1 (human); compound 10.0 µM,101%
same,residual activity,[1]; compound 1.0 µM,102%
same,residual activity,[1]; compound 10.0 µM,103%
same,residual activity,PRKCG (human); compound 1.0 µM,111%
same,residual activity,PRKCG (human); compound 10.0 µM,99%
same,residual activity,MAPKAPK3 (human); compound 1.0 µM,88%
same,residual activity,TEK (human); compound 1.0 µM,93%
same,residual activity,TEK (human); compound 10.0 µM,95%
same,residual activity,TSSK1B (human); compound 10.0 µM,103%
same,residual activity,TTBK1 (human); compound 1.0 µM,110%
same,residual activity,TTBK1 (human); compound 10.0 µM,100%
same,residual activity,EIF2AK3 (human); compound 1.0 µM,101%
same,residual activity,EIF2AK3 (human); compound 10.0 µM,97%
same,residual activity,PTK6 (human); compound 1.0 µM,96%
same,residual activity,PTK6 (human); compound 10.0 µM,97%
same,residual activity,ABL1 (human); compound 1.0 µM,93%
same,residual activity,ABL1 (human); compound 10.0 µM,103%
same,residual activity,STK33 (human); compound 10.0 µM,98%
same,residual activity,IRAK1 (human); compound 1.0 µM,79%
same,residual activity,IRAK1 (human); compound 10.0 µM,56%
same,residual activity,STK16 (human); compound 1.0 µM,87%
same,residual activity,STK16 (human); compound 10.0 µM,100%
same,residual activity,ZAP70 (human); compound 1.0 µM,75%
same,residual activity,ZAP70 (human); compound 10.0 µM,77%
same,residual activity,TESK1 (human); compound 1.0 µM,116%
same,residual activity,TESK1 (human); compound 10.0 µM,108%
COc1ccc(-n2ncc3cnc(Nc4cc(OC)c(OC)c(OCCCN5CCN(C)CC5)c4)nc32)cc1,residual activity,PRKAA1 or PRKAA2 (rat); compound 0.1 µM,25%
same,residual activity,PRKAA1 or PRKAA2 (rat); compound 1.0 µM,22%
same,residual activity,TLK1 (human); compound 0.1 µM,79%
same,residual activity,TLK1 (human); compound 1.0 µM,39%
same,residual activity,[1]; compound 0.1 µM,101%
same,residual activity,[1]; compound 1.0 µM,71%
same,residual activity,PRKCG (human); compound 0.1 µM,117%
same,residual activity,PRKCG (human); compound 1.0 µM,71%
same,residual activity,MAPKAPK3 (human); compound 0.1 µM,97%
same,residual activity,MAPKAPK3 (human); compound 1.0 µM,81%
same,residual activity,TEK (human); compound 0.1 µM,60%
same,residual activity,TEK (human); compound 1.0 µM,11%
same,residual activity,TSSK1B (human); compound 0.1 µM,31%
same,residual activity,TSSK1B (human); compound 1.0 µM,5%
same,residual activity,TTBK1 (human); compound 0.1 µM,104%
same,residual activity,TTBK1 (human); compound 1.0 µM,102%
same,residual activity,EIF2AK3 (human); compound 1.0 µM,31%
same,residual activity,PTK6 (human); compound 0.1 µM,46%
same,residual activity,PTK6 (human); compound 1.0 µM,6%
same,residual activity,ABL1 (human); compound 0.1 µM,31%
same,residual activity,ABL1 (human); compound 1.0 µM,7%
same,residual activity,STK33 (human); compound 0.1 µM,30%
same,residual activity,STK33 (human); compound 1.0 µM,23%
same,residual activity,IRAK1 (human); compound 0.1 µM,19%
same,residual activity,IRAK1 (human); compound 1.0 µM,5%
same,residual activity,STK16 (human); compound 0.1 µM,101%
same,residual activity,STK16 (human); compound 1.0 µM,42%
same,residual activity,ZAP70 (human); compound 0.1 µM,54%
same,residual activity,ZAP70 (human); compound 1.0 µM,22%
same,residual activity,TESK1 (human); compound 0.1 µM,59%
same,residual activity,TESK1 (human); compound 1.0 µM,24%
